Series [1] relates to p-ERK1/2 in DLD-1 cells. Description: Inhibition of p-ERK1/2 in DLD-1 cells (Cisbio Advanced phospho-ERK1/2 kit). In kind it is cell-based. As to conditions: Homo sapiens; DLD-1 cells (KRAS G13D mutation), hEGF 5 nM stimulation; read-out: IC50 (nM) Inhibition on p-ERK½ in DLD-1 cells. The text has this: The following method was used to determine the inhibition activities of the compounds of the present invention on p-ERK1/2 in DLD-1 cells. The Advanced phospho-ERK1/2 (Thr202/tyr2O4) kit (Art. No. 64AERPEH) from Cisbio was used in this method. Please refer to the kit instruction for detailed experimental operations. DLD-1 cells (containing KRAS G13D mutation) were purchased from the Cell Resource Center of Shanghai Institutes for Biological Sciences, Chinese Academy of Sciences.
The experimental process can be briefly described as follows: DLD-1 cells were cultured in RPMI 1640 complete medium containing 10% fetal bovine serum, 100 U penicillin, 100 μg/mL streptomycin and 1 mM Sodium Pyruvate. DLD-1 cells were plated in a 96-well plate at 30,000 cells per well, after cultured overnight in 5% CO2 incubator at 37° C. with complete culture medium. The test compounds were dissolved in DMSO to prepare storage solutions of 10 mM, and then diluted with RPMI 1640 basic mediums. 90 μL of RPMI 1640 basic mediums containing the test compounds at the corresponding concentration were added to each well. The final concentrations of the test compounds in the reaction system were 10,000 nM to 0.15 nM, and were placed in a cell culture incubator for 3 hours and 40 minutes. Subsequently, 10 μL of hEGF (purchased from Roche, Art. No. 11376454001) prepared with RPMI 1640 basic medium was added to a final concentration of 5 nM, and placed in the incubator for culturing for 20 minutes. The cell supernatant was discarded, and the cells were washed with PBS on ice-bath. Then, 45 μl of 1× cell phospho/total protein lysis buffer (component of Advanced phospho-ERK1/2 kit) was added to each well for lysis. The 96-well plate was placed on ice for 0.5 hours to lyse, and then the lysate was detected according to the instruction of the Advanced phospho-ERK1/2 (Thr202/tyr2O4) kit. Finally, the microplate reader was used in […] mode to measure the fluorescence intensity of each well emitting wavelengths of 620 nm and […] under the excitation wavelength of 304 nm, and the fluorescence intensity ratio 665/620 in each well was calculated. By comparing with the fluorescence intensity ratio of a control group (0.1% DMSO), the percentage inhibition rates of the test compounds at each concentration were calculated, and the IC50 values of the compounds were obtained by performing nonlinear regression analysis with logarithmic values of the compound concentration-inhibition rate by GraphPad Prism 5 software, which can be seen in Table 3.

Series [2] relates to NCI-H358 cells. Description: Inhibition of NCI-H358 cell proliferation under 3D non-anchored conditions (CellTiter-Glo 3D). The series is classed as cell-based. As to conditions: Homo sapiens, NCI-H358 cells (KRAS G12C mutation), 120 hours. The protocol: The following method was used to determine the effects of the compounds of the present invention on NCI-H358 cell proliferation under three-dimensional (3D) non-anchored conditions. NCI-H358 cells (containing KRAS G12C mutation) were purchased from the Cell Resource Center of Shanghai Institutes for Biological Sciences, Chinese Academy of Sciences, and cultured in RPMI 1640 medium containing 10% fetal bovine serum, 100 U penicillin, 100 μg/mL streptomycin and 1 mM Sodium Pyruvate. The activities of the cells were determined by CellTiter-Glo® 3D Cell Viability Assay Kit (Promega, Art. No. G9683).
The experimental method was operated according to the steps in the kit instruction, which can be briefly described as follows: the test compounds were first dissolved in DMSO to prepare storage solutions of 10 mM, and then diluted with culture mediums to prepare test samples. The final concentrations of the compounds were 10000 nM to 0.15 nM. Cells in logarithmic phase were inoculated in an ultra-low adsorption 384-well cell culture plate (PerkinElmer, #3830) with 2000 cells per well, and the test compounds were added and cultured for 120 hours. After the culture was completed, 30 μL of CellTiter-Glo 3D detection solution was added to each well, shaken for 30 minutes and then stood for 120 minutes. Then, a Luminescence mode was used to read the luminescence values of each well of the samples on a microplate reader. By comparing with the numerical value of a control group (0.1% DMSO), the percentage inhibition rates of the compounds at each concentration were calculated, and the IC50 values of the compounds inhibiting cell proliferation were obtained by performing nonlinear regression analysis with logarithmic values of the compound concentration-inhibition rate by GraphPad Prism 5 software, which can be seen in Table 4.
(In ATP-based viability assays light output follows the ATP content of the culture.)

The subject of series [3] is OCI-AML5 cells. Briefly: Inhibition of OCI-AML5 cell proliferation (CellTiter-Glo). The series is classed as cell-based. As to conditions: Homo sapiens, OCI-AML-5; OCI-AML5 cells (SOS1 N233Y mutation), 120 hours. The protocol: The following method was used to determine the influence of the compounds of the present invention on OCI-AML5 cells proliferation. OCI-AML5 cells (containing SOS1 N233Y mutation) were purchased from Nanjing Kebai Biotechnology Co., Ltd. and cultured in MEMα medium containing 10% fetal bovine serum, 100 U penicillin, and 100 μg/mL streptomycin. The activities of the cells were determined by CellTiter-Glo® Luminescent Cell Viability Assay Kit (Promega, Art. No. G7573).
The experimental method was operated according to the steps in the kit instruction, which were briefly described as follows: the test compounds were first dissolved in DMSO to prepare storage solutions of 10 mM, and then diluted with culture mediums to prepare test samples. The final concentrations of the compounds were 10000 nM to 0.15 nM. Cells in logarithmic phase were inoculated in a 96-well cell culture plate with 1,000 cells per well, after cultured overnight in 5% CO2 incubator at 37° C., the test compounds were added to the incubator to continue the culture for 120 hours. After the culture was completed, 50 μL of CellTiter-Glo detection solution was added to each well, shaken for 5 minutes and then stood for 10 minutes. Then, a Luminescence mode was used to read the luminescence values of each well of the samples on a microplate reader.

Series [4] is described as follows: Pharmacokinetic evaluation in ICR mice. As to conditions: male, mouse, plasma, PO 10 mg/kg; for AUC(0-t): read-out: Area under curve AUC0-t; for half-life: read-out: Half-life T1/2 (converted); for Cmax: read-out: Plasma concentration Cmax. In kind it is in vivo. The text has this:
ICR normal mice were used as test animals, and LC/MS/MS was used to determine the drug concentrations at different moments in plasma of ICR mice by intragastric administration. The pharmacokinetic behavior of the compounds of the present invention in ICR mice was studied to evaluate the pharmacokinetic characteristics of the above compounds.
Compound 4, Compound 26 and Compound 32.
ICR mice, male, 27.8-38 g, were purchased from Zhejiang Vital River Laboratory Animal Technology Co., Ltd.
An appropriate amount of the compound was weighed, and DMA:30% Solutol HS-15:Saline=5:5:90 (v/v/v) was used as the solvent to prepare a fully dissolved solution, and then administered to obtain a 1 mg/mL colorless solution.
The ICR mice in the intragastric group of each compound to be tested (nine mice in each group) were fasted overnight followed by intragastric administration (administration dosage was 10 mg/kg and the administration volume was 10 mL/kg), and ate 4 hours after administration.
0.1 mL of blood was collected via orbit before administration and 0.25 hour, 0.5 hour, 1 hour, 2 hours, 4 hours, 8 hours, 12 hours, and 24 hours after administration, and placed in EDTA-K2 anticoagulant tubes. The collected blood samples were placed on ice, and plasma was separated by centrifugation (centrifugation condition: 1500 g, 10 minutes). The collected plasma samples were stored at −40˜−20° C. before analysis.
(§1) LC-MS/MS was used to determine the content of the compound to be tested in mouse plasma after intragastric administration.

Series [5] can be described thus: Pharmacokinetic evaluation in Balb/c mice. As to conditions: male, mouse, plasma, PO 10 mg/kg; for AUC(0-t): read-out: Area under curve AUC0-t; for half-life: read-out: Half-life T1/2 (converted); for Cmax: read-out: Plasma concentration Cmax. In kind it is in vivo.
Source text: Balb/c normal mice were used as test animals, and LC/MS/MS was used to determine the drug concentrations at different moments in plasma of balb/c mice by intragastric administration. The pharmacokinetic behavior of the compounds of the present invention in Balb/c mice was studied to evaluate the pharmacokinetic characteristics of the above compounds.
Compound 27 and Compound 30.
Nine Balb/c normal mice, male, were evenly divided into 3 groups, with 3 mice in each group, purchased from Zhejiang Vital River Laboratory Animal Technology Co., Ltd.
An appropriate amount of the compound was weighed, and DMA:30% Solutol HS-15:Saline=5:5:90 (v/v/v) was used as the solvent to prepare a fully dissolved solution with a concentration of 1 mg/mL.
The mice in the intragastric group of each compound to be tested (nine mice in each group) were fasted overnight followed by intragastric administration (administration dosage was 10 mg/kg and the administration volume was 10 mL/kg), and ate 4 hours after administration.
0.1 mL of blood was collected via jugular vein before administration and 0.25 hour, 0.5 hour, 1 hour, 2 hours, 4 hours, 6 hours, 8 hours, and 24 hours after administration, and placed in 0.1% sodium heparin anticoagulant test tubes. The collected blood samples were placed on ice, and plasma was separated by centrifugation (centrifugation condition: 7000 g, 5 minutes). The collected plasma samples were stored at −80° C. before analysis.
as §1

Take `COc1cc2nc(C)nc(N[C@H](C)c3cccc(C#N)c3C)c2cc1N1CCC(C(=O)N(C)C)CC1` [Compound 22, (R)-1-(4-((1-(3-cyano-2-methylphenyl)ethyl)amino)-7-methoxy-2-methylquinazolin-6-yl)-N, N-dimethylpiperidine-4-carboxamide]: the half-inhibitory concentration (IC50) – broadly, the point on the concentration scale where inhibition reaches its midpoint – in series [1] was determined as 20.9 nM; in series [2], 15.1 nM; in series [3], 7.2 nM.

On to `CC(=O)c1cc2nc(C)nc(N[C@H](C)c3cccc(C#N)c3C)c2cc1N1CCC2(CC1)COC2` [Compound 26, (R)-3-(1-((7-acetyl-2-methyl-6-(2-oxa-7-azaspiro[3.5]nonan-7-yl)quinazolin-4-yl)amino)ethyl)-2-methylbenzonitrile], for which, in series [4], the AUC(0-t) worked out at 7700 ng·h/mL, the half-life was 1.98 h and the Cmax was determined as 2830 ng/mL. Also, 17.4 nM corresponded to half-maximal inhibition in series [3] (IC50).

Turning to `COc1cc2nc(C)nc(N[C@H](C)c3cccc(C#N)c3C)c2cc1N1CCC(N2CCN(C(C)=O)CC2)CC1` [Compound 27, (R)-3-(1-((6-(4-(4-acetylpiperazin-1-yl)piperidin-1-yl)-7-methoxy-2-methylquinazolin-4-yl)amino)ethyl)-2-methylbenzonitrile], the IC50 in series [1] is 31.2 nM. Besides, in series [5], the AUC(0-t) is 4660 ng·h/mL, the half-life is 4.91 h and the Cmax turned out to be 1150 ng/mL.

As for `CCOC(=O)N1CCN(c2cc3c(N[C@H](C)c4cccc(C#N)c4C)nc(C)nc3cc2OC)CC1` [Compound 30, ethyl (R)-4-(4-((1-(3-cyano-2-methylphenyl)ethyl)amino)-7-methoxy-2-methylquinazolin-6-yl)piperazine-1-carboxylate], in series [5], the AUC(0-t) came out at 10800 ng·h/mL, the half-life is 0.79 h and the Cmax is 4660 ng/mL.

With `COc1cc2nc(C)nc(N[C@H](C)c3cccc(C#N)c3C)c2cc1C1(OC)CCN(C(C)=O)CC1` [Compound 32, (R)-3-(1-((6-(1-acetyl-4-methoxypiperidin-4-yl)-7-methoxy-2-methylquinazolin-4-yl)amino)ethyl)-2-methylbenzonitrile], in series [4], the AUC(0-t) came out at 22100 ng·h/mL, the half-life is 2.29 h and the Cmax was found to be 5610 ng/mL.

The values above are taken from US20240382475A1, “Quinazoline Derivative, Or Preparation Method Therefor And Use Thereof” (Zhejiang Hisun Pharmaceutical Co., Ltd., priority 2021, published 2024).
